Values quoted from earlier work, collected in US20210228489A1, “COMPOSITIONS FOR TREATING CYSTIC FIBROSIS” (Vertex Pharmaceuticals Incorporated, priority 2017, published 2021).

Tested on: CFTR
Conditions: CFTR modulator; disclosed in PCT Publication No. WO 2016/057572

CC(C)COc1cc(F)cc(-c2ccc(C(=O)NS(=O)(=O)c3cccc(N)n3)c(N3C[C@@H](C)CC3(C)C)n2)c1 [Compound I, N-[(6-amino-2-pyridyl)sulfonyl]-6-(3-fluoro-5-isobutoxy-phenyl)-2-[(4S)-2,2,4-trimethylpyrrolidin-1-yl]pyridine-3-carboxamide]
EC30: < 3000 nM
